Measurements taken from PMC13079396, “Use of a cytochrome P450 humanized mouse model to refine schistosomiasis drug discovery” (Proceedings of the National Academy of Sciences of the …, 2026).
Where “and” joins values, the source holds several entries; their conditions need not be identical. Equal values may be shown once. Read-outs that look alike come from different tables or passages of the source.

Tests used:
[1] = PK in S. mansoni infected WT mice, oral rac-PZQ; assay type: in vivo; details: female, mouse, whole blood, single oral 400 mg/kg rac-PZQ at 41 d postinfection, total blood, n = 3
[2] = Range-finding PK study, uninfected 8HUM mice, oral rac-PZQ; assay type: in vivo, mouse; details: for AUC(0-t) / Cmax: female, mouse, whole blood, uninfected 8HUM mice, single oral 25 mg/kg rac-PZQ, total blood, n = 2
Description: Dose formulations were prepared on the day of dosing. […] Supernatants were analysed by LC-MS/MS immediately. […] Chromatographic separation was […] […] […] used. […] Intrinsic clearance determination […] […] Lower […] […] Analytical acceptance criteria were reported previously (1).

[3] = Range-finding PK study, uninfected WT mice, oral rac-PZQ; details: female, WT (wild-type), mouse, whole blood, 400 mg/kg
[4] = PK in S. mansoni infected 8HUM mice, oral rac-PZQ; assay type: in vivo; details: female, mouse, whole blood, total blood, n = 3
[5] = test system: S. mansoni; details: cited from earlier work
[6] = assay type: in vitro ADME; details: human, microsomes
Description: Supernatants were analysed by LC-MS/MS immediately. […] Chromatographic separation was achieved using a previously described method (2) with minor modifications. […] The flow rate was 1.2 mL/min. […] used. […] Intrinsic clearance determination […] Lower […]

[7] = test system: S. mansoni; experiment: PZQ-induced efficacy (worm and egg burden reduction) in S. mansoni infected 8HUM mice; assay type: in vivo, Schistosoma mansoni; details: for worm burden reduction: day 47
Description: (§1) Lower […] Analytical acceptance criteria were reported previously (1). […] Reactions were […]

[8] = test system: S. mansoni; experiment: PZQ-induced efficacy (worm and egg burden reduction) in S. mansoni infected WT mice; assay type: in vivo, Schistosoma mansoni
Description: as §1

[9] = assay type: in vitro ADME; details: mouse, microsomes
[10] = single oral 400 mg/kg, day 47, 400 mg/kg

SMILES | AUC(0-t) [1] | Cmax [1] | AUC(0-t) [2] | Cmax [2] | AUC(0-t) [3] | Cmax [3] | AUC(0-t) ([4]; single oral 100 mg/kg rac-PZQ) | Cmax ([4]; single oral 100 mg/kg rac-PZQ) | AUC(0-t) ([4]; single oral 200 mg/kg rac-PZQ) | Cmax ([4]; single oral 200 mg/kg rac-PZQ) | further results
O=C(C1CCCCC1)N1CC(=O)N2CCc3ccccc3[C@@H]2C1 [R-PZQ] | 73600 ng·h/mL | 25800 ng/mL | 2860 ng·h/mL | 2210 ng/mL | 12000 ng·h/mL | 7740 ng/mL | 25700 ng·h/mL | 13200 ng/mL | 68300 ng·h/mL | 20800 ng/mL | 
O=C(C1CCCCC1)N1CC(=O)N2CCc3ccccc3C2C1 (racemic) [rac-PZQ, praziquantel] |  |  |  |  |  |  |  |  |  |  | drug-induced efficacy (worm burden reduction) ([5]; WT animals, single oral dose of 400 mg/kg rac-PZQ, 400 mg/kg): ~ 94% and > 90%; reduction in worm burden ([5]; WT mice, single 100 mg/kg bodyweight oral dose, at most): ≤ 53%; Microsomal CLint [6]: 3.2 mL/min/g; worm burden reduction ([7]; 8HUM mice, single oral 100 mg/kg, 100 mg/kg): 92%; worm burden reduction ([7]; 8HUM mice, single oral 100 mg/kg, listed as PZQ, 100 mg/kg): > 90%; worm burden reduction ([7]; 8HUM mice, single oral 200 mg/kg): 98%; reductions in worm burdens ([7]; 8HUM mice, single oral doses of 100 to 200 mg/kg bodyweight): > 90%; increase in efficacy in 8HUM mice vs WT mice at the same dose ([7]; single 100 mg/kg oral dose, 8HUM (this study) vs WT (ref 7)): approximately twofold; reduction in adult worm burdens ([8]; single oral 400 mg/kg at 41 d postinfection, day 47, vs excipient controls): 93%; worm burden reduction, females [8, 10]: 95%; worm burden reduction, males [8, 10]: 90%; Microsomal CLint [9]: 2.7 mL/min/g
O=C(C1CCC(O)CC1)N1CC(=O)N2CCc3ccccc3C2C1 (stereo not drawn) [4OH-PZQ] | 197000 ng·h/mL | 42600 ng/mL | 19400 ng·h/mL | 5360 ng/mL | 98500 ng·h/mL | 27600 ng/mL | 108000 ng·h/mL | 21700 ng/mL | 19400 ng·h/mL | 5360 ng/mL | AUClast and Cmax in 8HUM animals, fold lower compared to WT animals ([2]; 8HUM 25 mg/kg vs WT 400 mg/kg rac-PZQ, oral, uninfected): ~ fivefold
